For 7 molecules, % of inhibition, % of control and % binding results are on record in ChEMBL document CHEMBL5465560, “Selectivity Literature for EUbOPEN Chemogenomic Library” (2024).

Experiment [1] concerns the target Serine/threonine-protein kinase MARK1 (Homo sapiens) (UniProt Q9P0L2). Nature of the experiment: Selectivity interaction (SelectScreen profiling (Invitrogen)) EUB0000607a MARK1. The following applies: at 2 µM.
The target of experiment [2] is Ribosomal protein S6 kinase alpha-1 (Homo sapiens, UniProt Q15418). Nature of the experiment: Selectivity interaction (ActivX KiNativ screen (kinase selectivity in THP-1 cell lysates)) EUB0000639a RPS6KA1. The experiment is classed as subcellular. The note with it: lysate, at 0.01 µM.
In experiment [3] the target is T1, Serine/threonine-protein kinase Sgk3 (Homo sapiens) (UniProt Q96BR1).
T1 sequence (whole entry): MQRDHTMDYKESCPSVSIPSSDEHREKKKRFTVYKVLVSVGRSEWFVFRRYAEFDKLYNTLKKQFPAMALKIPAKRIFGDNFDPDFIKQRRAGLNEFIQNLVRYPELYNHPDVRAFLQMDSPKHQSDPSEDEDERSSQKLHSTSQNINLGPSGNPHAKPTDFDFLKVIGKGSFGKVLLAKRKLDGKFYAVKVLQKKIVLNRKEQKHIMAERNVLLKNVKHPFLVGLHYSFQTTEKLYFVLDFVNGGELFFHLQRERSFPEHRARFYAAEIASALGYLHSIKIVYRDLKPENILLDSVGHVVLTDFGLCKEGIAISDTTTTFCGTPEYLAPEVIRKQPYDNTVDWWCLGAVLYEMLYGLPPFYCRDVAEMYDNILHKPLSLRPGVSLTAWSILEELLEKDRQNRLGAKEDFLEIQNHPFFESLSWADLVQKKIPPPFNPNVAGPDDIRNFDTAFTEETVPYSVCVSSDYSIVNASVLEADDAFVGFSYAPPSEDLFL
Nature of the experiment: Selectivity interaction (ProQinase) EUB0000171b SGK3.

Experiment [4] deals with Casein kinase II subunit alpha' (Homo sapiens) (UniProt P19784). Nature of the experiment: Selectivity interaction (ProQinase) EUB0000171b CSNK2A2.
The target in experiment [5] is Death-associated protein kinase 3 (Homo sapiens) (UniProt O43293). Nature of the experiment: Selectivity interaction (Ambit KINOMEscan and KiNATiv profiling in Jurkat cells) EUB0000090b DAPK3. The experiment is classed as cell-based. The note with it: at 1 µM.
Experiment [6] deals with T2, Serine/threonine-protein kinase ULK1 (Homo sapiens) (UniProt O75385).
T2 sequence (whole entry): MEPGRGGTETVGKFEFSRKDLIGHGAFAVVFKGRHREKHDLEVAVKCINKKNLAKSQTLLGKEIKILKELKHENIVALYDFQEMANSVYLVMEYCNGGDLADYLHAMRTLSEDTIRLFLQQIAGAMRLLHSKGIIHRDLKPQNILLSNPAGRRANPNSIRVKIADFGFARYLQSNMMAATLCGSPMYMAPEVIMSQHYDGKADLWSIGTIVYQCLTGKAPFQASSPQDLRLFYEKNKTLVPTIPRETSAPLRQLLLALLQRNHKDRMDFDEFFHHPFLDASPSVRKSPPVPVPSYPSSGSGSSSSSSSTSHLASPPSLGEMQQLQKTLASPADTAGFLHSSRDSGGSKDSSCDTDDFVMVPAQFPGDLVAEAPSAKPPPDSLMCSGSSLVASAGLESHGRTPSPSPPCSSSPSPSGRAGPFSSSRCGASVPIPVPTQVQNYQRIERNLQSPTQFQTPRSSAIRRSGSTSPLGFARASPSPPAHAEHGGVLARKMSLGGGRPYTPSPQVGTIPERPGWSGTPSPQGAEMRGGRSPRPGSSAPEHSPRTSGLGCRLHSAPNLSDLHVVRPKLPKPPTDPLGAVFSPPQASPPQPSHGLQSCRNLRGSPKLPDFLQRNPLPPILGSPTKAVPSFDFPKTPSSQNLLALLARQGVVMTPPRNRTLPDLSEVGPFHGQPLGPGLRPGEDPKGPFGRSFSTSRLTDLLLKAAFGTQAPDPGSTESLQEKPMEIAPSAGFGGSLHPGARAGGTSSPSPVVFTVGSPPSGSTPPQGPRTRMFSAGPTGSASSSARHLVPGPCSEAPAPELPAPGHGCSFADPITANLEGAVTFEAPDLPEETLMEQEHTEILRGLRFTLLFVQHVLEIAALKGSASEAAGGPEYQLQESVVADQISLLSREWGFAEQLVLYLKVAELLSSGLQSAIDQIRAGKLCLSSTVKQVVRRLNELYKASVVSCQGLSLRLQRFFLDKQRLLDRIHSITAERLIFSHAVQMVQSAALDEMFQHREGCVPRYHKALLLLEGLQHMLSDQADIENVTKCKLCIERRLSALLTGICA
Nature of the experiment: Selectivity interaction (Ambit KINOMEscan and KiNATiv profiling in Jurkat cells) EUB0000090b ULK1. In kind it is cell-based. The note with it: at 1 µM.

The target in experiment [7] is T1, Serine/threonine-protein kinase Sgk3 (Homo sapiens). Nature of the experiment: Selectivity interaction (KinomeScan (DiscoverX)) EUB0000618a SGK3. The following applies: at 10 µM.
For experiment [8], the target named is T3, Serine/threonine-protein kinase DCLK2 (Homo sapiens) (UniProt Q8N568).
T3 sequence (whole entry): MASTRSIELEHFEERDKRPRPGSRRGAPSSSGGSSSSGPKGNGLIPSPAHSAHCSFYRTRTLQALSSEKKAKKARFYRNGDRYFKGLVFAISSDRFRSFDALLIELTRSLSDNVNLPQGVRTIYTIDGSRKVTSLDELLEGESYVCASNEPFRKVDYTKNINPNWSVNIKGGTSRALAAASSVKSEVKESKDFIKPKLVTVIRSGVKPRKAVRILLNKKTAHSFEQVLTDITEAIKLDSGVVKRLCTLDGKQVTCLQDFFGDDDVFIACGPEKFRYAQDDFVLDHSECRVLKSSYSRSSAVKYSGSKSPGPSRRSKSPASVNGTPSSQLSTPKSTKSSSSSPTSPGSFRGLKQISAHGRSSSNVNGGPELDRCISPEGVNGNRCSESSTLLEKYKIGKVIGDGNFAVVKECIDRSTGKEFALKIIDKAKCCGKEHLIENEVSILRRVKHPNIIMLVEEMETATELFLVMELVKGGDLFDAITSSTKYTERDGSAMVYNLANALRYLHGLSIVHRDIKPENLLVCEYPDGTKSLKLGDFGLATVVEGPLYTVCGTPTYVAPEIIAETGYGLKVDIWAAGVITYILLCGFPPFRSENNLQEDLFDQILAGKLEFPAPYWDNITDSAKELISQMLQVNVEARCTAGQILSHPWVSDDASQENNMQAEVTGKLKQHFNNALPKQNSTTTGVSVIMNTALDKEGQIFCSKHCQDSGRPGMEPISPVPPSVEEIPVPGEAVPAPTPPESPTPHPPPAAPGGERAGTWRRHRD
Nature of the experiment: Selectivity interaction (KinomeScan (DiscoverX)) EUB0001079a DCLK2. The note with it: at 1 µM.

Experiment [9] addresses Calcium/calmodulin-dependent protein kinase type 1 (Homo sapiens) (UniProt Q14012). Nature of the experiment: Selectivity interaction (KinomeScan (DiscoverX)) EUB0000229b CAMK1. The following applies: at 10 µM.

Chain of Casein kinase II subunit alpha' (Homo sapiens) (P19784 whole entry, looked up): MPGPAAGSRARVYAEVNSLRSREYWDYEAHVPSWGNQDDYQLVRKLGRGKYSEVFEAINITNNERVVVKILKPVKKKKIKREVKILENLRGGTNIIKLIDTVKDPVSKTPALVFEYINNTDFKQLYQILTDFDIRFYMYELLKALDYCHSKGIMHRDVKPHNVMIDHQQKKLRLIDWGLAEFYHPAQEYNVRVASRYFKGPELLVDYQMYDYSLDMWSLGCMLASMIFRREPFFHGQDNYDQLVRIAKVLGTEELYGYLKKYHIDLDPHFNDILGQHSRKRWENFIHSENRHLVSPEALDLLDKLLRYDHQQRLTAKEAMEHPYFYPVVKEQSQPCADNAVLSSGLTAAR
Chain of Calcium/calmodulin-dependent protein kinase type 1 (Homo sapiens) (Q14012 whole entry, looked up): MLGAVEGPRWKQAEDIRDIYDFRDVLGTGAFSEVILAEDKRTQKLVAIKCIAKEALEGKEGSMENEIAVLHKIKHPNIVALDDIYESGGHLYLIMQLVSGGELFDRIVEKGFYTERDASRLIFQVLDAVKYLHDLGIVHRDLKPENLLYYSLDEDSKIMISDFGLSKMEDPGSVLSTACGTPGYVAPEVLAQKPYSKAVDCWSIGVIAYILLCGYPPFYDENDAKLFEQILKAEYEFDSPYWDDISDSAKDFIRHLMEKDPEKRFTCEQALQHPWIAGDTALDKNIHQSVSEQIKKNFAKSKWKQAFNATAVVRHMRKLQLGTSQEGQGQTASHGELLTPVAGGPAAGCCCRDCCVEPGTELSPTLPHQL
Chain of Serine/threonine-protein kinase MARK1 (Homo sapiens) (Q9P0L2 whole entry, looked up): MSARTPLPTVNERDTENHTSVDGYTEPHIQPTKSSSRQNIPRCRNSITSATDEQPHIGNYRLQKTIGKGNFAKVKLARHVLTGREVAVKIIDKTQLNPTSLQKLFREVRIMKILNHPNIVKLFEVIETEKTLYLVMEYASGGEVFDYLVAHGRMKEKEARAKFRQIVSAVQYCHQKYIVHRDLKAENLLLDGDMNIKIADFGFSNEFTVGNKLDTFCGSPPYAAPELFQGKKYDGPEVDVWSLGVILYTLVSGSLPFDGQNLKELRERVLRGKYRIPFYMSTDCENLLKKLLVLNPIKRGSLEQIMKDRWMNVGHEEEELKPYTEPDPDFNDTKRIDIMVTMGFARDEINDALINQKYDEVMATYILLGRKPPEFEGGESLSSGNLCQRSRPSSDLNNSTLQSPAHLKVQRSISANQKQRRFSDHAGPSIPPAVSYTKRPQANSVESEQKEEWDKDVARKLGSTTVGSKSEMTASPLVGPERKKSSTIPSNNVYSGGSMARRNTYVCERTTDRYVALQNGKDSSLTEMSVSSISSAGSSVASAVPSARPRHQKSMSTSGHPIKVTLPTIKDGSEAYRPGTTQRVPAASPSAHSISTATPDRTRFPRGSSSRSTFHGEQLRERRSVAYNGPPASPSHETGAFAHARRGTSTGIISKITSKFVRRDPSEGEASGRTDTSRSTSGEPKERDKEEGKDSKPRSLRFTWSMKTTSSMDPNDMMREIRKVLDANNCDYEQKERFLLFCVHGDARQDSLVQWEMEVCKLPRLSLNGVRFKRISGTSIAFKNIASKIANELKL
Chain of Ribosomal protein S6 kinase alpha-1 (Q15418 whole entry): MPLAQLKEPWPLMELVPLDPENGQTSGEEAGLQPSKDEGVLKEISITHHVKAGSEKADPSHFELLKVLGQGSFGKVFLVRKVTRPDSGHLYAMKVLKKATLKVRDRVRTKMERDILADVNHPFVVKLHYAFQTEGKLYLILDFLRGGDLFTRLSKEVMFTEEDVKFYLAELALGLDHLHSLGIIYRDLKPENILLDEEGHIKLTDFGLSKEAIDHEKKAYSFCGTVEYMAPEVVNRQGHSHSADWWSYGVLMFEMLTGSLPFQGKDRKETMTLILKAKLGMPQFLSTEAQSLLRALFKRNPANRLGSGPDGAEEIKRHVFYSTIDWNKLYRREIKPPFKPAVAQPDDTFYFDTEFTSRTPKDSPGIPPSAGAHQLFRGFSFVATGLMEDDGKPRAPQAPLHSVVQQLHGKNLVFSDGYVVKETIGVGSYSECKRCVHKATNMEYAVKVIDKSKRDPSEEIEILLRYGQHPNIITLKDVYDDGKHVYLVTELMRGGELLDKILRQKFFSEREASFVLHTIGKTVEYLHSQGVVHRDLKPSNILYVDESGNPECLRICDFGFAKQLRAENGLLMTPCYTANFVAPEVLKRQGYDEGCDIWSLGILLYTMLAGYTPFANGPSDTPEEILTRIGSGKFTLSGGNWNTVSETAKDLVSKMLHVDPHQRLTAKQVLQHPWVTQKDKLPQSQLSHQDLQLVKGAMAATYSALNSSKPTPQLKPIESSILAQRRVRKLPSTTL
Chain of Death-associated protein kinase 3 (Homo sapiens) (O43293 whole entry, looked up): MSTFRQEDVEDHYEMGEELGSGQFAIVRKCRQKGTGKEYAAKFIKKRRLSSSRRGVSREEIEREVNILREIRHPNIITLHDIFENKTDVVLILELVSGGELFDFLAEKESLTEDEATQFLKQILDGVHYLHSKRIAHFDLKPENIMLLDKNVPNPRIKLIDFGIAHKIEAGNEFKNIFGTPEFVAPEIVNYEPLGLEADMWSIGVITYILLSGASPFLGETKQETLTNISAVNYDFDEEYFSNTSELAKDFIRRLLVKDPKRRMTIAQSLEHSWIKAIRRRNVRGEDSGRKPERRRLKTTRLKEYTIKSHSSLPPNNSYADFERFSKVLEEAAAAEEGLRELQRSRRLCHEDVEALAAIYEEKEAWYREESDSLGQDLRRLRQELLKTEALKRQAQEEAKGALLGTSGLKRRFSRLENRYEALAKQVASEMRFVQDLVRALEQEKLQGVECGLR

`CNC(=O)Nc1ccc(-c2nc(N3CC4CCC(C3)O4)c3cnn(C4CCC5(CC4)OCCO5)c3n2)cc1` registered a % of inhibition in experiment [1] of 13%.
For `CC[C@@H]1[C@H](F)C(=O)N[C@@H]1COc1nccc2cc(C(N)=O)c(OC)cc12` [ZIMLOVISERTIB], in experiment [2], the % of inhibition came out at 3.6%.
As to `C=CC(=O)Nc1cccc(C(=O)Nc2ccc(Nc3cc(-c4[nH]c(SC)nc4C)ccn3)cc2)c1`, the % of control is 82% in experiment [3] (at 1 µM), 76% in [3] (at 5 µM), 80% in experiment [4] (at 1 µM) and 52% in experiment [4] (at 5 µM).
Turning to `CN(C)C/C=C/C(=O)Nc1ccc(C(=O)N2CCCC(Nc3ncc(Cl)c(-c4c[nH]c5ccccc45)n3)C2)cc1` (stereo unspecified), the % of control in experiment [5] came to 100%; in experiment [6], 88%.
On to `O[C@H]1CC[C@H](Nc2ncc3nc(Nc4c(F)cc(F)cc4F)n([C@H]4CCOC4)c3n2)CC1`, for which the % of control in experiment [7] was found to be 100%.
For `Nc1cnc(N2CCc3cc(S(=O)(=O)Nc4c(F)cc(Cl)cc4F)cc(N4CCCC4=O)c32)nc1` [TP-020n], in experiment [8], the % of control was 100%.
Take `COc1cc(N(C)c2ccnc3ccc(C(F)(F)F)cc23)cc(OC)c1OC`: the % binding in experiment [9] was 59%.
